# Results taken from US20250215071A1, “Novel Mcl-1 inhibitor and combination of Mcl-1 and a BH3 mimetic, such as a Bcl-2 inhibitor” (NETRIS PHARMA, priority 2022, published 2025).
# System: caspase-9
# Assay: UNC5B-induced caspase-9 activity in HeLa UNC5B cells
# Assay type: cell-based, Human
# Details: Dox; 18 hours
# Method: FIG. 5. UNC5B-mediated Mcl-1 degradation induces MOMP and caspase-9 activation. (A): UNC5B over-expression triggers Mitochondrial Outer Membrane Permeabilization (MOMP) in a COMMD2/CRL3 complex-dependent manner. Hela cells were transfected with scramble (siCTRL), COMMD2 (siCOMMD2-1) or RBX1 (siRBX1-1) siRNAs. 24 hours after transfection, cells were treated with Dox and after further 18 hours mitochondrial depolarization quantified by 5′,6,6′-tetrachloro-1,1′,3,3′-tetraethylbenzimi-dazolylcarbocyanine iodide (JC-1) dye staining, using NucleoCounter NC3000 (n=3, **** p<0.0001, ordinary two-way ANOVA with Tukey's multiple comparisons test). Values are given as means±SEM. (B,C,D): Apoptotic cell death induced by UNC5B over-expression requires caspase-9. HeLa UNC5B cells were transfected with scramble (siCTRL) or caspase-9 (siCASP9) siRNAs and 24 hours later treated with the indicated concentrations of Dox. Propidium iodide (PI)-positive cells were assessed in real-time up to 48 hours using Incucyte Zoom instrument (C) (n=[…], Kolmogorov-Smirnov test). DNA fragmentation was assessed by FACS analysis (D) and caspase-3 was measured using caspase-3 fluorometric kit (E), both 18 hours after treatment (n=[…], **** p<0.0001, ordinary two-way ANOVA with Šidák's multiple comparisons test). Values are given as means±SEM. […] HeLa UNC5B cells were treated with Dox and 18 hours later caspase-9 and -8 activities were assessed by fluorometric kit, using specific substrates (n=3, ^nsp>0.05, *p<0.05, Mann-Whitney test, one-tailed). […] 24 hours later, cells were treated with Dox and caspase-9 activity was measured by fluorometric kit (n=3, **** p<0.0001, ordinary two-way ANOVA with Tukey's multiple comparisons test). […] 18 hours after treatment, caspase-9 activity was assessed with the fluorometric kit (n=5, *p<0.05, ** p<0.01, *** p<0.001, **** p<0.0001, ordinary two-way ANOVA with Tukey's multiple comparisons test). […] Cells were then treated with Dox and Mcl-1 protein was evaluated by western blot. […]
compound,measurement,value
CC(C)C[C@H](NC(=O)[C@H](Cc1ccccc1)NC(=O)c1cnccn1)B(O)O [bortezomib],UNC5B-induced caspase-9 activation,sufficient to prevent UNC5B-induced caspase-9 activation
